According to patent US12410160B2 (Gilead Sciences, Inc., priority 2021, dated 2025):
pEC50, pIC50: −log10 of the molar value. Like-named read-outs stand apart in the source and are kept apart here.

Legend:
[1] = biological target: human KHK-C (Homo sapiens (Human), UniProt P50053); assay: KHK Biochemical Assay (IC50), ADP-Glo, KHK-C; details: average of at least two separate assays
Method in brief: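 His-tagged enzyme expressed in BL21 (DE3), Ni-NTA purified. Compounds, serially diluted 1:3 in DMSO, pre-incubated 30 min with enzyme in 50 mM Hepes pH 7.4, 140 mM KCl, 5 mM MgCl2, 0.01% Triton-X, then ATP and fructose added; 4 h at room temperature. ADP formation read by ADP-Glo luminescence.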

[2] = biological target: KHK-C expressed in NRK-52E cells (Homo sapiens (Human), UniProt P50053); assay: KHK-C Cell-based Assay (EC50), NRK CTG, fructose-mediated ATP-depletion
[3] = read-out: NRK CTG EC50, NRK-52E cells, Cell-Titer Glo, 25 mM fructose

Chain of KHK-C expressed in NRK-52E cells (P50053 whole entry): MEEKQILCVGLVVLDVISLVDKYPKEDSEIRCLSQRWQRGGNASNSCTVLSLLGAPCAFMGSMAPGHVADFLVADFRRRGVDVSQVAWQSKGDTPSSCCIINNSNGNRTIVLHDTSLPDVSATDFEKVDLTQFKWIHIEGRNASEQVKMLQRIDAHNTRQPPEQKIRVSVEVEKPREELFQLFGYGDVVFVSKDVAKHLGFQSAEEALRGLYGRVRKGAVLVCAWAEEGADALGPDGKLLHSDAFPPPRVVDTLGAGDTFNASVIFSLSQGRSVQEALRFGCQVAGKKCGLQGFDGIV
Chain of human KHK-C (P50053 whole entry): as above

pIC50 [1]	pEC50 [2, 3]	pEC50 [2]	pIC50 ([1]; ADP-Glo)	SMILES
8.21	7.09	–	–	C[C@H]1CCN1c1nc2c(c(-c3cccc([C@H]4C[C@@H](C(=O)O)C4)c3)n1)CCC2 (single isomer, unassigned) [Example 440]
6.81	–	6.49	–	C[C@H]1CCN1c1nc2c(c(-c3cccc([S+](C)[O-])c3)n1)CCC2 (stereo in doubt) [Example 400, (S)-2-(2-methylazetidin-1-yl)-4-(3-(methylsulfinyl)phenyl)-6,7-dihydro-5H-cyclopenta[d]pyrimidine]
–	–	7.26	7.72	C[C@H]1CCN1c1nc2c(c(-c3cccc(CN4CCCS4(=O)=O)c3)n1)CCC2 [Example 75, (S)-2-(3-(2-(2-methylazetidin-1-yl)-6,7-dihydro-5H-cyclopenta[d]pyrimidin-4-yl)benzyl)isothiazolidine 1,1-dioxide]
–	–	7.34	8.47	C[C@H]1CNC(=O)c2ccc(-c3nc(N4C[C@@H](O)[C@@H]4C)nc4c3CCC4(F)F)cc2O1 [Example 87]
–	–	< 5.30	7.03	C[C@H]1[C@H](O)CN1c1nc2c(c(-c3ccc(C(=O)O)cc3)n1)CCC2 [Example 162, 4-(2-((2S,3R)-3-hydroxy-2-methylazetidin-1-yl)-6,7-dihydro-5H-cyclopenta[d]pyrimidin-4-yl)benzoic acid]
–	–	6.60	7.31	C[C@H]1CCN1c1nc2c(c(-c3ccc4cnccc4c3)n1)CCC2 [Example 163, (S)-6-(2-(2-methylazetidin-1-yl)-6,7-dihydro-5H-cyclopenta[d]pyrimidin-4-yl)isoquinoline]
–	–	7.02	7.79	C[C@H]1[C@H](O)CN1c1nc2c(c(-c3ccc4c(c3)OCCNC4=O)n1)CCC2 [Example 164, 8-(2-((2S,3R)-3-hydroxy-2-methylazetidin-1-yl)-6,7-dihydro-5H-cyclopenta[d]pyrimidin-4-yl)-3,4-dihydrobenzo[f][1,4]oxazepin-5(2H)-one]
–	–	6.84	7.63	C[C@H]1[C@H](O)CN1c1nc(-c2ccc(C(N)=O)nc2)c2c(n1)C(F)(F)CC2 [Example 168, 5-(7,7-difluoro-2-((2S,3R)-3-hydroxy-2-methylazetidin-1-yl)-6,7-dihydro-5H-cyclopenta[d]pyrimidin-4-yl)picolinamide]
–	–	< 5.30	5.35	C[C@H]1[C@@H](O)CN1c1nc2c(c(-c3ccc(C(N)=O)cc3)n1)CCC2 [Example 169, 4-(2-((2S,3S)-3-hydroxy-2-methylazetidin-1-yl)-6,7-dihydro-5H-cyclopenta[d]pyrimidin-4-yl)benzamide]
–	–	6.78	7.63	CNC(=O)c1ccc(-c2nc(N3C[C@@H](O)[C@@H]3C)nc3c2CCC3(F)F)cc1 [Example 171, 4-(7,7-difluoro-2-((2S,3R)-3-hydroxy-2-methylazetidin-1-yl)-6,7-dihydro-5H-cyclopenta[d]pyrimidin-4-yl)-N-methylbenzamide]
–	–	6.70	–	C[C@H]1[C@H](F)CN1c1nc2c(c(-c3cccc(CN)c3)n1)CCC2 [Example 352, [3-[2-[(2S,3R)-3-fluoro-2-methyl-azetidin-1-yl]-6,7-dihydro-5H-cyclopenta[d]pyrimidin-4-yl]phenyl]methanamine]
–	–	6.66	–	C[C@H]1CCN1c1nc2c(c(-c3nc4ccccc4[nH]3)n1)CCC2 [Example 389, 2-[2-[(2S)-2-methylazetidin-1-yl]-6,7-dihydro-5H-cyclopenta[d]pyrimidin-4-yl]-1H-benzimidazole]
–	–	7.49	–	C[C@H]1[C@H](O)CN1c1nc(-c2ccc3c(c2)CNCC3)c2c(n1)C(F)(F)CC2 [Example 612, (2S,3R)-1-(7,7-difluoro-4-(1,2,3,4-tetrahydroisoquinolin-7-yl)-6,7-dihydro-5H-cyclopenta[d]pyrimidin-2-yl)-2-methylazetidin-3-ol]

Continued, molecule first:

SMILES	pIC50 [1]	pEC50 [2, 3]	pEC50 [2]	pIC50 ([1]; ADP-Glo)
C[C@H]1CCN1c1nc2c(c(-c3cccc([C@H]4C[C@H](C(=O)O)C4)c3)n1)CCC2 (single isomer, unassigned) [Example 441]	8.15	6.68	–	–
C[C@@H]1CNC(=O)c2ccc(-c3nc(N4C[C@@H](O)[C@@H]4C)nc4c3CCC4(F)F)cc2O1 [Example 94]	–	–	7.08	8.08
C[C@H]1c2ccccc2CN1c1nc2c(c(-c3ccc(C(N)=O)cc3)n1)CCC2 [Example 167, (S)-4-(2-(1-methylisoindolin-2-yl)-6,7-dihydro-5H-cyclopenta[d]pyrimidin-4-yl)benzamide]	–	–	< 5.30	< 5.30
NC(=O)c1ccc(-c2nc(N3Cc4n[nH]cc4C3CO)nc3c2CCC3)cc1 (stereo not drawn) [Example 172, 4-(2-(4-(hydroxymethyl)-2,6-dihydropyrrolo[3,4-c]pyrazol-5(4H)-yl)-6,7-dihydro-5H-cyclopenta[d]pyrimidin-4-yl)benzamide]	–	–	< 5.30	< 5.30
NC(=O)c1ccc(-c2nc(N3CCn4nccc43)nc3c2CCC3)cc1 [Example 173, 4-(2-(2,3-dihydro-1H-imidazo[1,2-b]pyrazol-1-yl)-6,7-dihydro-5H-cyclopenta[d]pyrimidin-4-yl)benzamide]	–	–	< 5.30	< 5.30
NC(=O)c1ccc(-c2nc(N3CCn4cncc43)nc3c2CCC3)cc1 [Example 174, 4-(2-(2,3-dihydro-1H-imidazo[1,5-a]imidazol-1-yl)-6,7-dihydro-5H-cyclopenta[d]pyrimidin-4-yl)benzamide]	–	–	< 5.30	< 5.30
C[C@H]1CCN1c1nc2c(c(-c3ccc(CNS(C)(=O)=O)cc3)n1)CCC2 [Example 361, N-[[4-[2-[(2S)-2-methylazetidin-1-yl]-6,7-dihydro-5H-cyclopenta[d]pyrimidin-4-yl]phenyl]methyl]methanesulfonamide]	–	–	7.18	–
C[C@H]1CCN1c1nc(-c2ccc(C(N)=O)cc2)c2cn[nH]c2n1 [Example 401, (S)-4-(6-(2-methylazetidin-1-yl)-1H-pyrazolo[3,4-d]pyrimidin-4-yl)benzamide]	–	–	< 5.30	–
C[C@H]1CCN1c1nc2c(c(-c3ccc4c(c3)CN(S(=O)(=O)CC#N)CC4)n1)CCC2 [Example 604, (S)-2-((7-(2-(2-methylazetidin-1-yl)-6,7-dihydro-5H-cyclopenta[d]pyrimidin-4-yl)-3,4-dihydroisoquinolin-2(1H)-yl)sulfonyl)acetonitrile]	–	–	6.78	–
C[C@H]1CCN1c1nc2c(c(-c3cccc(C4CCS(=O)(=O)N4)c3)n1)CCC2 (stereo partly drawn) [Example 606, 3-(3-(2-((S)-2-methylazetidin-1-yl)-6,7-dihydro-5H-cyclopenta[d]pyrimidin-4-yl)phenyl)isothiazolidine 1,1-dioxide]	–	–	7.43	–
C[C@H]1CCN1c1nc2c(c(-c3cn(C4CC4)nn3)n1)CCC2 [Example 644, 4-(1-cyclopropyltriazol-4-yl)-2-[(2S)-2-methylazetidin-1-yl]-6,7-dihydro-5H-cyclopenta[d]pyrimidine]	–	–	6.15	–
C[C@H]1CCN1c1nc2c(c(-c3cn(CCO)nn3)n1)CCC2 [Example 645, 2-[4-[2-[(2S)-2-methylazetidin-1-yl]-6,7-dihydro-5H-cyclopenta[d]pyrimidin-4-yl]triazol-1-yl]ethanol]	–	–	6.40	–
C[C@H]1CCN1c1nc(-c2ccc([C@H](N)C(F)F)cc2)c2c(n1)C(F)(F)CC2 [Example 650, (1S)-1-[4-[7,7-difluoro-2-[(2S)-2-methylazetidin-1-yl]-5,6-dihydrocyclopenta[d]pyrimidin-4-yl]phenyl]-2,2-difluoro-ethanamine]	–	–	7.41	–
